Results published in patent publication US10662194B2, “Substituted 6-anilino-9-heterocyclylpurine derivatives for inhibition of plant stress” (UNIVERZITA PALACKEHO V OLOMOUCI, priority 2014, dated 2020).
Marks after values point to notes of the source that are not given here.

Legend:
ARR5:GUS reporter gene = experiment: Induction of cytokinin reporter ARR5:GUS in transgenic Arabidopsis plants; type: in vivo; conditions: 0.01-10 μM, 17 h, FIG. 2
Method: Cytokinins induce in Arabidopsis transcription of gene ARR5, a member of A-type response regulator family classified as cytokinin primary response genes being expressed down-stream of sensing by cytokinin receptors. We cultivated transgenic Arabidopsis plants harbouring PARR5::GUS reporter (D'Agostino et al. Plant Physiol. 124: 1706-1717, 2000) in MS medium containing cytokinin BAP, CKX inhibitor INCYDE and novel compounds 12 and 91 in concentrations 0.01, 0.1, 1, 5, 10 μM; DMSO (0.1%) was tested as solvent control. Seeds were surface-sterilized in 70% ethanol and then placed into wells of 6-well microtiter plate (TPP, Switzerland) containing 3 mL of MS medium in each well. After sowing plates were pretreated in dark at 4° C. to synchronize the germination of the seeds. […] Quantitative estimation of the level of ARR5:GUS gene induction was done according to method published by Romanov et al. (Romanov et al. FEBS Letters 515: 39-43, 2002). After extraction of proteins the GUS activity was determined using incubation with fluorogenic substrate MUG (4-methylumbelliferyl glucuronid; 1 h, 37° C.) and then fluorescence 365 nm and 460 nm (excitation and emission wavelengths) was recorded, as described in detail by Spíchal et al. (Spíchal et al. Plant and Cell Physiology 45: 1299-1305, 2004).

recombinant AtCKX2 = target: T1, recombinant AtCKX2 (Arabidopsis thaliana, UniProt Q9FUJ3); experiment: Inhibition of cytokinin oxidase/dehydrogenase activity (PMS/MTT microtitre assay); type: biochemical
T1 construct: made in house; host or cells: S. cerevisiae strain 23344c ura-
T1 sequence (Q9FUJ3 23-501): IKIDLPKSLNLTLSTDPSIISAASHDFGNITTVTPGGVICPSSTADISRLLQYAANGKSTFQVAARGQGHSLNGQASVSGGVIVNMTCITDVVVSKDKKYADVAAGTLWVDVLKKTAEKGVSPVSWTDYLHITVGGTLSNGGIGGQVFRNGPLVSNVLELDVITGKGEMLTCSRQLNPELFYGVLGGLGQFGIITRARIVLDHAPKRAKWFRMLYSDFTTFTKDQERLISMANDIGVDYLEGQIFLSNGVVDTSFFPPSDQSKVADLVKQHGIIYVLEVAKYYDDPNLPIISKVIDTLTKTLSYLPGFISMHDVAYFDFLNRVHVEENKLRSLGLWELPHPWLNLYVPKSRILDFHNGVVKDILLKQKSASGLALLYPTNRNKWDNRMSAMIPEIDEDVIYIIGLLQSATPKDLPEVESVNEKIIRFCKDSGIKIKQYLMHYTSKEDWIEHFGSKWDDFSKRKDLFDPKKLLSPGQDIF
Method: IC50 measurements were done using the assay in microtitre plate. Each well contained 100 μL of PMS/MTT [phenazine methosulfate/3-(4,5-dimethylthiazol-2-yl)-2,5-diphenyltetrazolium bromide] reaction mixture (final concentrations: 0.1 M KH2PO4, pH 7.4, 1 mM MTT, 0.2 mM PMS) containing the tested compound (3×10^−7 M-3×10^−4 M) and 30 μM N^6-isopentenyladenine (iP) as a substrate. 100 μL of cell-free growth medium of S. cerevisiae strain 23344c ura^− harboring the plasmid pYES2-AtCKX2 was directly used as a source of AtCKX2. Plates were incubated in the dark for 30 min at 37° C. and the enzymatic reaction was stopped by 25 μL of 35% acetic acid. The absorbance at 578 nm was measured using spectrophotometer Tecan. Absorbance of the sample without iP was subtracted.
The IC50 value, the compound concentration that inhibits the enzyme activity to 50%, was calculated from the obtained dose response curves. The values shown in Table 7 are means of three replicates and the entire test was repeated at least twice. […] Compound 12 is an effective inhibitor of AtCKX2 activity, app. 3-times stronger that thidiazuron and only app. 3-times weaker than the structurally related compound INCYDE (2-chloro-6-(3-methoxyanilino)purine).

[1] = system: CKX1 overproducing (35S:CKX1) Arabidopsis seedlings; experiment: In vitro shoot and root growth of cytokinin deficient Arabidopsis plants; type: in vivo
Text: Constitutive overexpression of CKX in 35S:CKX1 plants leads to enhanced root growth. If CKX inhibitor can restore WT phenotype, it is expected that inhibition of the CKX activity in 35S:AtCKX1 plants should thus have no effect or inhibit their root growth. Such observation was done in case of INCYDE, but not compound 12.

[2] = system: winter rapeseed variety Benefit; experiment: Seed coating, emergence and freezing tolerance of winter rapeseed (field experiment); type: in vivo; conditions: 50 μM seed coating
Method: To evaluate the effect of seed coating with compound 12 on yield forming traits of winter rapeseed field plot experiment was performed in season 2010/2011 on locality Opava, Czech Republic. Seeds of winter rapeseed variety Benefit (Selgen) were coated with 50 μM concentration of compound 12 mixed into the seed coating treatment Cruiser OSR (Syngenta; 15 L of solution per 1000 kg of seeds), seeds coated with only Cruiser OSR were used for control variant. The seeds were dried and then sown in the sowing rate 700.000 seeds per hectare in 4 replications per each variant in randomized positions (each replication was 10 square meter plot). In the experiment plant emergence, freezing tolerance and final seed yield were scored. The frost tolerance was estimated by method described in (Janáček, J., Prášil, I.: Quantification of plant frost injury by nonlinear fitting of an s-shaped function. Cryo-Letters vol. 12, 1991, no. 7, 47-52).

`COc1cccc(Nc2nc(Cl)nc3c2ncn3C2CCCCO2)c1` (stereo not shown) [compound 12, 2-chloro-6-(3-methoxyanilino)-9-(tetrahydropyran-2-yl)purine] was tested. Which “induction of ARR5:GUS expression” value (ARR5:GUS reporter gene) did it give?
The value was “dose-dependent induction of ARR5:GUS expression”.

What about the “AtCKX2 inhibition, times stronger than thidiazuron” value (recombinant AtCKX2) of the same molecule?
The value was roughly 3 times.

What about the “AtCKX2 inhibition, times weaker than INCYDE” value (recombinant AtCKX2) of the same molecule?
The value was roughly 3 times.

What about the IC50 (recombinant AtCKX2; 30 μM iP substrate, 30 min, 37° C., read-out: IC50) of the same molecule?
Its IC50 is 19.5 µM.

What about the “complementation of wild type shoot phenotype” value ([1]; 0.1 μM in MS medium, FIG. 3, 4) of the same molecule?
Its value is “led to restauration of wild type shoot phenotype”.

What about the “root biomass of 35S:CKX1 plants” value ([1]; tested concentration range, FIG. 5) of the same molecule?
The value was “strong dose-dependent positive effect”.

What about the “Estimated frost resistence (atrifical frost test) - Letal Temperature LT50” value [2] of the same molecule?
The value was −12.3 *.

What about the “Number of emerged plants per sq meter - autumn (11th October, 2010)” value [2] of the same molecule?
The value was 60.0 per sq meter.

And the “Plant height (cm) - autumn (11th October, 2010)” value [2]?
Its value is 6.6 cm.

What about the “Seed yield (% of control)” value [2] of the same molecule?
The value was 103.1 % of control.

What about the “increase of artificially estimated frost tolerance” value [2] of the same molecule?
Its value is roughly 5%.

And the “increase of the final seed yield” value [2]?
Its value is 3.1%.

What about the “more plants emerged in the same time compared to control” value [2] of the same molecule?
Its value is roughly 20%.

What about the “Leafs weight - autumn (22th October)” value ([2]; 15 plants) of the same molecule?
The value was 11.69**.

What about the “Root lenght (cm) - autumn (22th October)” value ([2]; 15 plants) of the same molecule?
The value was 14.63 cm.

And the “Seed yield (t/ha)” value ([2]; mean from 4 plots)?
The value was 5.98 t/ha.
